# According to patent publication US12435051B2, “Dual modulator of mGluR5 and 5-HT2A receptor, and use thereof” (Vivozon Inc., priority 2020, dated 2025):
# Like-named read-outs stand apart in the source and are kept apart here.
# Experiments:
# human 5-HT2AR = biological target: T1, human 5-HT2AR (Homo sapiens, UniProt P28223); experiment: HTRF-based IP1 accumulation assay (5-HT2AR antagonistic effect); type: cell-based; settings: HEK293 cells overexpressing human 5-HT2AR; serotonin at EC80
# T1 construct: expressed in transfected cells; host or cells: HEK293
# Protocol: The 5-HT2AR antagonistic effect of the test compounds was confirmed by measuring the production amount of IP1 using the HEK293 cell line permanently overexpressing the human 5-HT2AR. The test compounds were dissolved in 100% DMSO to a final concentration of 10 mM. The starting concentration of 10 μM was prepared from the stock solution, followed by serial dilutions to prepare working solutions in a buffer containing lithium chloride (LiCl). The cells and compounds prepared in the test buffer were placed in a 96-well plate and incubated at room temperature for 10 minutes. Serotonin of EC80 concentration was added, followed by incubation at 37° C. for 30 minutes in a light-shielding state. To measure IP1 accumulation in cells, JP1-d2 acceptor and IP1-Cryptate donor-which are HTRF-based substances for fluorescence signals-were added and incubated for 1 hour at room temperature in a light-shielded state. The fluorescent emission signals of acceptor and donor were detected, and HTRF ratio values were substracted by mean value of serotonin control. The percentage of activation was calculated by normalization of the serotonin control (0%) and IP1 control (100%). The IC50 values of the test compounds are represented in Table 1. (+: 1,000-2,000 nM, ++: 500-1,000 nM, +++: 100-500 nM, ++++: less than 100 nM).
# mGluR5 = biological target: T2, mGluR5 (Homo sapiens, UniProt P41594); experiment: Fluorescence-based Ca2+ mobilization assay; type: cell-based; settings: HEK293 cells overexpressing mGluR5; L-glutamate at EC80
# T2 construct: expressed in transfected cells; host or cells: HEK293
# Protocol: In order to measure the activity on the mGluR5, an experiment was carried out to check the change in the intracellular Ca^2+ level using the HEK293 cell line permanently overexpressing the mGluR5. The cells in the cell culture medium were aliquoted into a 384-well plate coated with poly-D-lysine and cultured in a 37° C. incubator supplied with 5% CO2. The next day, the medium was removed and a dye loading buffer—in which a reagent capable of measuring Ca^2+ was dissolved—was added, and then incubated at 37° C. for 60 minutes. The test compounds were dissolved in 100% DMSO at a final concentration of 10 mM to make a stock solution. The starting concentration of […] was prepared from the stock solution, followed by serial dilutions to prepare working solutions (test compound working solutions). The test compound working solutions were added to the cells that were incubated in the dye loading buffer, which were maintained for 30 minutes at room temperature in a light-shielding state before measurement. The Ca^2+ level change induced by L-glutamate at EC80 concentration was measured for 2 minutes using FLIPR Tetra (MDS Analytical Technologies). The fluorescent Ca^2+ signal values in the presence of the test compounds were normalized to the fluorescent signal elicited by […] concentration of L-glutamate as 100% and that elicited by vehicle as 0% to estimate % inhibition of the test compounds. The efficacy of the test compounds was calculated as IC50 values and represented in Table 1. (+: 1,000-2,000 nM, ++: 500-1,000 nM, +++: 100-500 nM, ++++: less than 100 nM).
# [1] = system: physical (tactile) allodynia in spinal nerve ligation model; experiment: Analgesic efficacy experiment using animal model (Chung model, spinal nerve ligation); type: in vivo, Sprague-Dawley rats; settings: rat, oral; for inhibition in vivo at 50 mg/kg: 50 mpk; for inhibition in vivo at 25 mg/kg: 25 mpk
# Protocol: The Chung model (spinal nerve ligation model) is a representative animal model to study neuropathic pain and is widely accepted as a gold standard for an animal pain model by global pharmaceutical companies around the world.
# In this experiment, male Sprague-Dawley rats (100-120 g) purchased from Koatech (Pyeongtaek-si, Gyeonggi-do) were used. Rats were kept in a room maintained at constant temperature and humidity with a 12 hour light-dark cycle. Rats were allowed to eat and drink freely during the experiment.
# For the Chung surgery, rats were anesthetized by isoflurane inhalation and the left lumbar nerves L5 and L6 were tightly tied with a suture thread (6-0 silk thread) at the end of the dorsal ganglion and at a front of an entrance to the sciatic nerve according to the article (Kim and Chung (1992), Pain 50(3):355-63). After suturing the incision, the rats were recovered for 2 weeks in the controlled maintenance room to induce physical allodynia in the left hind paw of the rat. To measure physical (tactile) allodynia, the rats were placed in a cage with a wire mesh on the bottom. Stimuli of increasing intensity (using the von Frey filaments in a range of 0.41 to 15.8 g) were placed on the plantar surface on the side of the nerve injury. The stimulus intensity at which the pain response (abrupt lifting, licking or sucking of the foot) was induced was recorded while applying gradual increment of stimuli. As described in the study of Chaplan et al. (1994) (Chaplan et al. (1994) J. Neurosci. Methods 53(1):55-63), the paw withdrawal threshold (PWT) was determined by increasing or decreasing continuous stimulus intensity, and the result was analyzed by applying Dixon's up-down method. Only rats showing no behavior dysfunction (e.g., feet dragging or dropping) were selected and included in the study, and the PWT of the rats used was 3.16 g or less.
# After measuring the degree of basic reaction before drug injection, each compound and solvent were injected by oral administration (12.5-100 mg/kg), and the measurement was repeated at regular time intervals (60 and 120 minutes) after the drug was injected.
# The experimenter conducted the PWT measurement in a blind condition not knowing which rat was administered with which drug. The control group was administered with gabapentin (65 mg/kg, intraperitoneal administration), and was randomly mixed during the measurement. Statistical analysis was performed on the measured pain response threshold by calculating the reversal rate (% reversal) from pain in Equation 1 below. […] Pain reversal rate (% reversal)=[(PWT after drug administration)−(PWT before drug administration)]*100/[(15 g, Estimated PWT in normal animals)−(PWT before drug administration)] [Equation 1]
# The PWT used in this time is a value obtained by multiplying the gram, the unit of “force” measure, by 10,000, and taking the logarithm, which is a method generally used in academia.
# Each experiment consisted of the compound group, the solvent group of the compound and the gabapentin (GBP) group as positive control group. As solvent of the compound, 0.5% HPMC (hydroxypropylmethyl cellulose) was used.
# [2] = 1 h, read-out: % reversal (1 h)
# [3] = 2 h, read-out: % reversal (2 h)
# T2 sequence (P41594 21-1212): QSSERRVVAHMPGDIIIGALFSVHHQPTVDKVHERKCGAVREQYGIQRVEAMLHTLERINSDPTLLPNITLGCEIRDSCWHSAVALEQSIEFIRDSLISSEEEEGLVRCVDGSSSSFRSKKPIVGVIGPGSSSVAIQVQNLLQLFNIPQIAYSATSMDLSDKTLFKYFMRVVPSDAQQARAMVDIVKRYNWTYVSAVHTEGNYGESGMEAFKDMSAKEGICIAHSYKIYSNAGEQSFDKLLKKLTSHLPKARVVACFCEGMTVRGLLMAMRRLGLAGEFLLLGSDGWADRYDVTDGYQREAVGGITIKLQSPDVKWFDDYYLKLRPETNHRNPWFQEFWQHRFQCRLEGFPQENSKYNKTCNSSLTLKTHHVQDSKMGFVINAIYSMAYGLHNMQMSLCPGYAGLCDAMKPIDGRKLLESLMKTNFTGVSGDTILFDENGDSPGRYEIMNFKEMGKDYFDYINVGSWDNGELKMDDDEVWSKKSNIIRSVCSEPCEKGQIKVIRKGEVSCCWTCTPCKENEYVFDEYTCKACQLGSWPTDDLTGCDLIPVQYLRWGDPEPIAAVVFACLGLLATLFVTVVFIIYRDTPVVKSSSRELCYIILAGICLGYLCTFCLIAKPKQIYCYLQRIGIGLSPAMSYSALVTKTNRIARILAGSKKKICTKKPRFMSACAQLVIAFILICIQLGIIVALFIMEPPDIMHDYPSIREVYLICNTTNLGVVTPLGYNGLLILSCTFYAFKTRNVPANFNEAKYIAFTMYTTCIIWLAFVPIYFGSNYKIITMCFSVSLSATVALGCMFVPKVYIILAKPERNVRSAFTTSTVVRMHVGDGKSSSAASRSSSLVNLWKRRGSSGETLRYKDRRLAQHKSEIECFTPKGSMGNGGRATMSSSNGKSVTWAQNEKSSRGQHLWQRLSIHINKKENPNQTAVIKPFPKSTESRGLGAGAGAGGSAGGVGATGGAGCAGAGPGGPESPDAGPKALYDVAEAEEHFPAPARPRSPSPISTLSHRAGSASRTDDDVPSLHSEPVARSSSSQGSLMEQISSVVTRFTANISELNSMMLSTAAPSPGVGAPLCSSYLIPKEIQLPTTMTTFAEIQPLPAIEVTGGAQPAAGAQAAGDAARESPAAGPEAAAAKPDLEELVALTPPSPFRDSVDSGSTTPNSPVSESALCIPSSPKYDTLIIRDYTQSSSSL
# T1 sequence (P28223 whole entry): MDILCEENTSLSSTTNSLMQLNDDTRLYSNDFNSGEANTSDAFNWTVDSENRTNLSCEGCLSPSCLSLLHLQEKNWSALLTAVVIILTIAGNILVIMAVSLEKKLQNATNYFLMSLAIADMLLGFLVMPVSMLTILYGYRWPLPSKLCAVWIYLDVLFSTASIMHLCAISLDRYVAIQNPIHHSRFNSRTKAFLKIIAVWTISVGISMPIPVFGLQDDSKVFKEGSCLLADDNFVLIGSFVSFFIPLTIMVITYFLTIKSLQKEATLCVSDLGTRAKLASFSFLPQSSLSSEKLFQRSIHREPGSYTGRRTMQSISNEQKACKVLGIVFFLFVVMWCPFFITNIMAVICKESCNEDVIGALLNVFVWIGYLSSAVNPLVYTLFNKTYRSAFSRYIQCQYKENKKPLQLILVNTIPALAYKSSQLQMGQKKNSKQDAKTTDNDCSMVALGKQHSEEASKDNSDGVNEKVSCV
IC50 (human 5-HT2AR),IC50 (mGluR5),Structure (SMILES),"inhibition in vivo at 50 mg/kg [1, 2]","inhibition in vivo at 50 mg/kg [1, 3]","inhibition in vivo at 25 mg/kg [1, 2]","inhibition in vivo at 25 mg/kg [1, 3]"
500 to 1000 nM,< 100 nM,"O=C(NCC1CCC(F)(F)CC1)c1ccc(C#Cc2ccncc2)cc1 [Example 88, N-((4,4-difluorocyclohexyl)methyl)-4-(pyridin-4-ylethynyl)benzamide]",97.8%,110%,–,–
500 to 1000 nM,< 100 nM,"O=C(NCC1CCCC(O)C1)c1ccc(C#Cc2ccccc2F)cc1 (centres unmarked) [Example 64, 4-((2-fluorophenyl)ethynyl)-N-((3-hydroxycyclohexyl)methyl)benzamide]",10.4%,45.2%,–,–
< 100 nM,100 to 500 nM,"CC(C)NC1(CNC(=O)c2ccc(C#Cc3ccccc3F)cc2)CCCCC1 [Example 25, 4-((2-fluorophenyl)ethynyl)-N-((1-(isopropylamino)cyclohexyl)methyl)benzamide]",–,–,36.5%,36.6%
100 to 500 nM,1000 to 2000 nM,"O=C(NCC1(NC2CC2)CCC1)c1ccc(C#Cc2ccc(F)cn2)cc1 [Example 4, N-((1-(cyclopropylamino)cyclobutyl)methyl)-4-((5-fluoropyridin-2-yl)ethynyl)benzamide]",–,–,–,–
500 to 1000 nM,100 to 500 nM,"O=C(NC[C@H]1C[C@@H](O)C1)c1ccc(C#Cc2ccccc2F)cc1 [Example 85, 4-((2-fluorophenyl)ethynyl)-N-(((1s,3s)-3-hydroxycyclobutyl)methyl)benzamide]",–,–,–,–
500 to 1000 nM,100 to 500 nM,"O=C(NCC1(CO)CCOCC1)c1ccc(C#Cc2ccccc2F)cc1 [Example 38, 4-((2-fluorophenyl)ethynyl)-N-((4-(hydroxymethyl)tetrahydro-2H-pyran-4-yl)methyl)benzamide]",–,–,–,–
< 100 nM,500 to 1000 nM,"O=C(NCC1(NC2CC2)CCCC1)c1ccc(C#Cc2ccc(F)cc2)cc1 [Example 13, N-((1-(cyclopropylamino)cyclopentyl)methyl)-4-((4-fluorophenyl)ethynyl)benzamide]",–,–,–,–
500 to 1000 nM,< 100 nM,"CC1(CNC(=O)c2ccc(C#Cc3ccccc3F)cc2)CCCO1 (centres unmarked) [Example 98, 4-((2-fluorophenyl)ethynyl)-N-((2-methyltetrahydrofuran-2-yl)methyl)benzamide]",–,–,–,–
1000 to 2000 nM,< 100 nM,"CC1(CNC(=O)c2ccc(C#Cc3ccccc3F)cc2)CC(F)(F)C1 [Example 97, N-((3,3-difluoro-1-methylcyclobutyl)methyl)-4-((2-fluorophenyl)ethynyl)benzamide]",–,–,–,–
< 100 nM,100 to 500 nM,"O=C(NCC1CC(F)(F)C1)c1ccc(C#Cc2ccc(F)cc2F)cc1 [Example 120, N-((3,3-difluorocyclobutyl)methyl)-4-((2,4-difluorophenyl)ethynyl)benzamide]",–,–,–,–
100 to 500 nM,1000 to 2000 nM,"O=C(NCC1(NC2CC2)CCCC1)c1ccc(C#Cc2ccc(F)c(F)c2)cc1 [Example 17, N-((1-(cyclopropylamino)cyclopentyl)methyl)-4-((3,4-difluorophenyl)ethynyl)benzamide]",–,–,–,–
100 to 500 nM,100 to 500 nM,"O=C(NC[C@@H]1CCOC1)c1ccc(C#Cc2ccccc2F)cc1 [Example 93, (S)-4-((2-fluorophenyl)ethynyl)-N-((tetrahydrofuran-3-yl)methyl)benzamide]",–,–,–,–
100 to 500 nM,500 to 1000 nM,"O=C(O)CC1(CNC(=O)c2ccc(C#Cc3ccccc3F)cc2)CCCCC1 [Example 76, 2-(1-((4-((2-fluorophenyl)ethynyl)benzamido)methyl)cyclohexyl)acetic acid]",–,–,–,–
500 to 1000 nM,< 100 nM,"CC1(CNC(=O)c2ccc(C#Cc3ccccc3F)cc2)CCC1 [Example 105, 4-((2-fluorophenyl)ethynyl)-N-((1-methylcyclobutyl)methyl)benzamide]",–,–,–,–
100 to 500 nM,< 100 nM,"CC1(CNC(=O)c2ccc(C#Cc3ccc(F)cc3)cc2)CCC1 [Example 106, 4-((4-fluorophenyl)ethynyl)-N-((1-methylcyclobutyl)methyl)benzamide]",–,–,–,–
1000 to 2000 nM,100 to 500 nM,"NC(=O)CC1(CNC(=O)c2ccc(C#Cc3ccccc3F)cc2)CCOCC1 [Example 78, N-((4-(2-amino-2-oxoethyl)tetrahydro-2H-pyran-4-yl)methyl)-4-((2-fluorophenyl)ethynyl)benzamide]",–,–,–,–
< 100 nM,< 100 nM,"CC1(CNC(=O)c2ccc(C#Cc3ccc(F)cc3F)cc2)CCCO1 (centres unmarked) [Example 119, 4-((2,4-difluorophenyl)ethynyl)-N-((2-methyltetrahydrofuran-2-yl)methyl)benzamide]",–,–,–,–
< 100 nM,100 to 500 nM,"O=C(NCC1CCCCO1)c1ccc(C#Cc2ccc(F)cc2F)cc1 (centres unmarked) [Example 115, 4-((2,4-difluorophenyl)ethynyl)-N-((tetrahydro-2H-pyran-2-yl)methyl)benzamide]",–,–,–,–
100 to 500 nM,500 to 1000 nM,"CN(C)C(=O)CC1(CNC(=O)c2ccc(C#Cc3ccccc3F)cc2)CCCCC1 [Example 81, N-((1-(2-(dimethylamino)-2-oxoethyl)cyclohexyl)methyl)-4-((2-fluorophenyl)ethynyl)benzamide]",–,–,–,–
1000 to 2000 nM,< 100 nM,"O=C(NC[C@@H]1CCCOC1)c1ccc(C#Cc2ccccc2F)cc1 [Example 91, (S)-4-((2-fluorophenyl)ethynyl)-N-((tetrahydro-2H-pyran-3-yl)methyl)benzamide]",–,–,–,–
1000 to 2000 nM,100 to 500 nM,"O=C(NCC1CCOCC1)c1ccc(C#Cc2ccc(F)cc2)cc1 [Example 33, 4-((4-fluorophenyl)ethynyl)-N-((tetrahydro-2H-pyran-4-yl)methyl)benzamide]",–,–,–,–

Structure (SMILES),IC50 (human 5-HT2AR),IC50 (mGluR5),"inhibition in vivo at 50 mg/kg [1, 2]","inhibition in vivo at 50 mg/kg [1, 3]","inhibition in vivo at 25 mg/kg [1, 2]","inhibition in vivo at 25 mg/kg [1, 3]"
"O=C(NC[C@@H]1CCCOC1)c1ccc(C#Cc2ccc(F)cc2F)cc1 [Example 124, (S)-4-((2,4-difluorophenyl)ethynyl)-N-((tetrahydro-2H-pyran-3-yl)methyl)benzamide]",100 to 500 nM,100 to 500 nM,–,–,–,–
